Key:
Type in all cases: biochemical
TMPRSS2 = biological target: T1, TMPRSS2 (Homo sapiens, UniProt O15393); experiment: fluorometric enzyme inhibition assay, TMPRSS2 (Boc-Gln-Ala-Arg-AMC); conditions: for Ki: from IC50 by Cheng-Prusoff, n.a. = not active, <80% inhibition at 20 µM
T1 construct: purchased Cusabio
Description: (§1) The inhibitory activity of the synthesized compounds towards the respective main- and off-target proteases was measured via fluorometric and colorimetric assays. Thus, fluorogenic AMC- or colorimetric pNA-based substrates with a peptide sequence suitable for the tested protease were utilized (see Supplementary Figure S2). At first, the compounds were screened against […] proteases (uPA, TMPRSS2, matriptase, tPA, thrombin, factor Xa) at 20 µM, and a cut-off value of 80% inhibition at this concentration was set, for the differentiation between nonactive (n.a.) and active inhibitors. Due to the reversible inhibition mechanism of the ketobenzothiazole derivates, the IC50 values were determined with Graphpad Prism 9, and afterwards converted to the corresponding Ki values for an adequate comparison between the inhibitory activities of the compounds toward all tested proteases. The Ki values were calculated using the Cheng–Prusoff equation [43].
(§2) Fluorometric inhibition assays
(§3) The inhibitory activities of the compounds against the proteases were determined by enzyme inhibition assays with fluorogenic or colorimetry-based substrates. The fluorescence, caused by cleaved AMC from the fluorogenic substrates (uPA, matriptase, TMPRSS2, thrombin), was measured in white flat-bottom 96-well plates from Greiner Bio-One using a Tecan Infinite F200 Pro plate reader. The absorption, caused by cleaved pNA from colorimetric substrates (factor Xa and tPA), was measured in transparent flat-bottom 96-well plates from Greiner Bio-One using a Tecan Spark 10M plate reader. All measurements with the main-target proteases (uPA and TMRPSS2) were performed as triplicates and with the off-target proteases (matriptase, factor Xa, tPA, thrombin) as duplicates. The substrates and the compounds were prepared as stock solutions in DMSO. Each well contained a total volume of 200 µL, consisting of 185 µL buffer, 5 µL inhibitor in DMSO or pure DMSO as negative control, 5 µL substrate in DMSO and 5 µL enzyme solution in buffer. Dilution series were prepared for the determination of the inhibition constants. The fluorescence signal and absorbance were measured every 30 s for 10 min at 25 or 37 °C with the corresponding excitation/emission (λex = 380 nm / λem = 460 nm) and absorbance (λabs = 405 nm) wavelengths, depending on the targeted protease. IC50 values for the reversible inhibitors were calculated with Graphpad Prism 9 by fitting the remaining enzymatic activity to the four parameter IC50 equation with Y [%] as the residual enzyme activity , Ymax as the maximum value of the dose response curve at inhibitor concentrations [I] = 0 µM, Ymin as the minimum value at high inhibitor concentrations and s as the hill coefficient.[1] The fluorescence progress curves and sigmoidal dose-response curve for inhibition of uPa by compound 38 is shown exemplary in Figure S2. […]
(§4) Due to the dependence of the IC50 value on the substrate affinity and concentration, the Ki values were calculated with the Cheng-Prusoff equation, using the final substrate concentration [S] and the Michaelis-Menten constant KM, (2) for appropriate comparison of the inhibitory activities to the other enzymes and inhibitors.[1]
(§5) KM values were determined by fitting to the Michaelis-Menten equation using Graphpad Prism 9 with v [ΔF/min] as the substrate hydrolysis rate, vmax as the maximum slope of the dose-response curve, and the substrate [S] concentration.[1] The different substrates were serially diluted in DMSO. The measurement was done in analogy to the determination of the inhibitory activity, but with 5 µL pure DMSO instead of inhibitor solution. […]
(§6) The following buffers and substrates were used for the respective assays: uPA (50 mM Tris HCl pH = 7.9, 150 mM […]
(§7) TMPRSS2 (25 mM Tris HCl pH = 8.0, 150 mM NaCl, 5 mM CaCl2, 0.001% TX-100, 100 µM Boc-Gln-Ala-Arg-AMC (KM: 68.63 ± 6.64 µM), 25 °C, 3 nM TMPRSS2)[3]; matriptase (50 mM Tris HCl pH = 8.0, 150 mM NaCl, 5 mM CaCl2, […]

matriptase = biological target: T2, matriptase (Homo sapiens, UniProt Q9Y5Y6); experiment: fluorometric enzyme inhibition assay, matriptase (Boc-Leu-Arg-Arg-AMC); conditions: for Ki: from IC50 by Cheng-Prusoff, n.a. = not active, <80% inhibition at 20 µM
T2 construct: catalytic domain of matriptase (uniport: Q9Y5Y6 aa 596–855); hexa-histidine (N); made in house; host or cells: Escherichia coli BL21 Gold (DE3)
T2 sequence (Q9Y5Y6 596-855): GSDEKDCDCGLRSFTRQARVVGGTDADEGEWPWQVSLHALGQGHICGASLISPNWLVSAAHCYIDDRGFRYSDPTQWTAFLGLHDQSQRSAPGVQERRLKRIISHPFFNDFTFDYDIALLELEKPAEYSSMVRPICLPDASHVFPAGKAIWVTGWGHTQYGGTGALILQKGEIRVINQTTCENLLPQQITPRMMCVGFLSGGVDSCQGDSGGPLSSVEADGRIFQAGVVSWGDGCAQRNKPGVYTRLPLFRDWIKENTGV
Description: as §1, §2, §3, §4, §5, §6, §7

thrombin = biological target: T3, thrombin (Homo sapiens, UniProt P00734); experiment: fluorometric enzyme inhibition assay, thrombin (Z-Gly-Gly-Arg-AMC); conditions: from IC50 by Cheng-Prusoff; n.a. = not active, <80% inhibition at 20 µM
T3 construct: purchased Bio-techne
Description: as §1, §2, §3, §4, §5, §6, §7

tPA = biological target: T4, tPA (Homo sapiens, UniProt P00750); experiment: colorimetric enzyme inhibition assay, tPA (N-methylsulfonyl-D-Phe-Gly-Arg-pNA); conditions: from IC50 by Cheng-Prusoff; n.a. = not active, <80% inhibition at 20 µM
T4 construct: purchased Sigma Aldrich
Description: as §1, §2, §3, §4
KM values were determined by fitting to the Michaelis-Menten equation using Graphpad Prism 9 with v [ΔF/min] as the substrate hydrolysis rate, vmax as the maximum slope of the dose-response curve, and the substrate [S] concentration.[1] The different substrates were serially diluted in DMSO. […]

factor Xa = biological target: T5, factor Xa (Homo sapiens, UniProt P00742); experiment: colorimetric enzyme inhibition assay, factor Xa (Z-D-Arg-Gly-Arg-pNA); conditions: from IC50 by Cheng-Prusoff; n.a. = not active, <80% inhibition at 20 µM
T5 construct: purchased Bio-techne
Description: as §1, §2, §3, §4, §5, §6, §7

T1 sequence (O15393 whole entry): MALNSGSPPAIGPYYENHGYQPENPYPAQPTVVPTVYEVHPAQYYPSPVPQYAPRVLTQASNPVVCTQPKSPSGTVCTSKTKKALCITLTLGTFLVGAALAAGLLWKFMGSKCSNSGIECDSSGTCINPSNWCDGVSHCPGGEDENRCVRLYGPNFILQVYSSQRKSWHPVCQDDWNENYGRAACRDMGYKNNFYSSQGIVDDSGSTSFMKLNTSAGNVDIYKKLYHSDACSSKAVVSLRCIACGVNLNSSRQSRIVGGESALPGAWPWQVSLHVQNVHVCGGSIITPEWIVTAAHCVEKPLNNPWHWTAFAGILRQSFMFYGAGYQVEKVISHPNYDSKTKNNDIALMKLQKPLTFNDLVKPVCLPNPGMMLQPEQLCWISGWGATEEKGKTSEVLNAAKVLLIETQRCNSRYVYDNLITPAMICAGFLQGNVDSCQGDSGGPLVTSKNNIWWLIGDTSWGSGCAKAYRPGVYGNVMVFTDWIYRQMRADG
T5 sequence (P00742 235-488 limits assumed): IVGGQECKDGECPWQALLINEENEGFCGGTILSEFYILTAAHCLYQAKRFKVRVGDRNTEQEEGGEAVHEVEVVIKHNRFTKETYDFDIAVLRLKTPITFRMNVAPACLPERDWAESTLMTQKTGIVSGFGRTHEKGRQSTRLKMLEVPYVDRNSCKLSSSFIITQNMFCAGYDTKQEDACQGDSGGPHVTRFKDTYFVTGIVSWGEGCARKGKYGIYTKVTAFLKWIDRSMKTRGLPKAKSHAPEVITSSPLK
T5 sequence (P00742 41-179 partner limits assumed): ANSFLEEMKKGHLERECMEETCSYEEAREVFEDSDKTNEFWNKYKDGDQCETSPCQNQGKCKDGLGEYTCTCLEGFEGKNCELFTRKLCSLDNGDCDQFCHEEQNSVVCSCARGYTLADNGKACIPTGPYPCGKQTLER
T4 sequence (P00750 36-562): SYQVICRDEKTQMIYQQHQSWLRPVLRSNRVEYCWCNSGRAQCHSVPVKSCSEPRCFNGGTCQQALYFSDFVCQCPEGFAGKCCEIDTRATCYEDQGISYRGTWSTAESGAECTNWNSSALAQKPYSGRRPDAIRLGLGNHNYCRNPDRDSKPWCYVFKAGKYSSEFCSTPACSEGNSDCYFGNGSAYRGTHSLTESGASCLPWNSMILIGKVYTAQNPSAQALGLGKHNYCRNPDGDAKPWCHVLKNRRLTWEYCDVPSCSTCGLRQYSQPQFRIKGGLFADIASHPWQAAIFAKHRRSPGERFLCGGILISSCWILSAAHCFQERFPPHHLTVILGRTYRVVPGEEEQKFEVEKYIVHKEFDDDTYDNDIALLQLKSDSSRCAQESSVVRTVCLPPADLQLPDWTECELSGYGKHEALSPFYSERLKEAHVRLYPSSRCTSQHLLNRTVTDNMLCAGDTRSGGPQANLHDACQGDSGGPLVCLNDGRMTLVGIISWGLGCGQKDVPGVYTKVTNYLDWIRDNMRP

Question: How did the Ki (TMPRSS2) turn out when `CC(=O)N[C@@H](Cc1ccccc1)C(=O)N[C@@H](Cc1ccc(NC(=N)N)cc1)C(=O)c1nc2ccccc2s1` [Compound 33] was run?
Answer: Its Ki is 5 ± 2 nM.

Question: And the Ki (matriptase)?
Answer: The Ki was 1440 ± 90 nM.

Question: And the “Selectivity index [SI] Matriptase” value (matriptase; quotient Ki matriptase / Ki TMPRSS2)?
Answer: Its value is 289.

Question: For `CC(=O)NCC(=O)NC(C(=O)NC(C)C(=O)NC(CC1CCC(NC(=N)N)CC1)C(=O)c1nc2ccccc2s1)C(C)O` (stereo not shown) [Compound 38], which “Ki Thrombin” value (thrombin) is on record?
Answer: The value was “did not inhibit”.

Question: What about the “Ki tPA” value (tPA) of the same molecule?
Answer: Its value is “did not inhibit”.

Question: And the Ki (TMPRSS2)?
Answer: The Ki was 73 ± 16 nM.

Question: And the “Selectivity index [SI] TMPRSS2” value (TMPRSS2; quotient Ki TMPRSS2 / Ki uPA)?
Answer: Its value is 1.8.

Question: And the Ki (matriptase)?
Answer: Its Ki is 626 ± 74 nM.

Question: And the “Selectivity index [SI] Matriptase” value (matriptase; quotient Ki matriptase / Ki uPA)?
Answer: The value was 16.

Question: What about the “Ki Factor Xa” value (factor Xa) of the same molecule?
Answer: The value was “did not inhibit”.

From publication PMC10855164, “Ligand-Based Design of Selective Peptidomimetic uPA and TMPRSS2 Inhibitors with Arg Bioisosteres” (International Journal of Molecular Sciences, 2024)
